Source: patent publication US20240376073A1 (Hoffmann-La Roche Inc., priority 2021, published 2024)
Where a name gives a salt, the structure may show the parent alone. Read-outs that look alike come from different tables or passages of the source.

Tested on: Acinetobacter baumannii ATCC17961
Assay: Antimicrobial susceptibility testing: 90% growth inhibitory concentration (IC90) determination
Assay type: cell-based
Details: Iso-Sensitest broth, growth by OD 600 nm over 16 h, 35±2° C.
Protocol: The in vitro antimicrobial activity of the compounds was determined according to the following procedure:
The assay used a 10-points Iso-Sensitest broth medium to measure quantitatively the in vitro activity of the compounds against Acinetobacter baumannii ATCC17961.
Stock compounds in DMSO were serially twofold diluted (e.g. range from 50 to 0.097 μM final concentration) in 384 wells microtiter plates and inoculated with 49 μl the bacterial suspension in Iso-Sensitest medium to have a final cell concentration of ˜5×10^(5) CFU/ml in a final volume/well of 50 ul/well. Microtiter plates were incubated at 35±2° C.
Bacterial cell growth was determined with the measurement of optical density at λ=600 nm each 20 minutes over a time course of 16 h. Growth inhibition was calculated during the logarithmic growth of the bacterial cells with determination of the concentration inhibiting 50% (IC50) and 90% (IC90) of the growth.
Table 1 provides the […] growth inhibitory concentrations (IC90) in micromoles per liter of the compounds of present invention obtained against the strain Acinetobacter baumannii ATCC17961.

[1] = Acinetobacter baumannii ATCC17961, read-out: ATCC 17961 IC90
[2] = Acinetobacter baumannii, ATCC17961, 16 h, read-out: ATCC 17961 IC90, Acinetobacter baumannii ATCC17961

SMILES	IC90 [1]	IC90 [2]
COc1ccc(-c2cnc(C(=O)Nc3ccc(C(=O)N4CCC(CC[N+](C)(C)C)CC4)c(Cl)c3)n2C)c(F)c1F [Example A1, 2-[1-[2-Chloro-4-[[5-(2,3-difluoro-4-methoxy-phenyl)-1-methyl-imidazole-2-carbonyl]amino]benzoyl]-4-piperidyl]ethyl-trimethyl-ammonium;formate]	79 nM	
COCCCn1cc(CNC(=O)c2ccc(NC(=O)c3ncc(-c4ccc(OC)c(F)c4F)n3C)cc2Cl)c[n+]1C [Example A25, N-[3-chloro-4-[1-(3-methoxypropyl)-2-methyl-pyrazol-2-ium-4-yl]methylcarbamoyl]phenyl]-5-(2,3-difluoro-4-methoxy-phenyl)-1-methyl-imidazole-2-carboxamide; formate]	410 nM	
COc1ccc(-c2cnc(C(=O)Nc3ccc(C(=O)N4CCN(CC[N+](C)(C)CC(N)=O)CC4)c(Cl)c3)n2C)c(F)c1F [Example A4, (2-amino-2-oxo-ethyl)-[2-[4-[2-chloro-4-[[5-(2,3-difluoro-4-methoxy-phenyl)-1-methyl-imidazole-2-carbonyl]amino]benzoyl]piperazin-1-yl]ethyl]-dimethyl-ammonium; formate]	210 nM	
COc1ccc(-c2cnc(C(=O)Nc3ccc(C(=O)N4CCN(C(=O)[C@@H]5CC[C@H](O)C[N+]5(C)C)CC4)c(Cl)c3)n2C)c(F)c1F [Example B46, N-[3-chloro-4-[4-[(2S,5S)-5-hydroxy-1,1-dimethyl-piperidin-1-ium-2-carbonyl]piperazine-1-carbonyl]phenyl]-5-(2,3-difluoro-4-methoxy-phenyl)-1-methyl-imidazole-2-carboxamide; formate]		120 nM
COc1ccc(-c2cnc(C(=O)Nc3ccc(C(=O)N4CCN(C(=O)C5CC[N+](CCCN)(CC(=O)O)CC5)CC4)c(Cl)c3)n2C)c(F)c1F (centres unmarked) [Example C32, 2-[1-(3-aminopropyl)-4-[4-[2-chloro-4-[[5-(2,3-difluoro-4-methoxy-phenyl)-1-methyl-imidazole-2-carbonyl]amino]benzoyl]piperazine-1-carbonyl]piperidin-1-ium-1-yl]acetic acid; formate]		810 nM
COc1ccc(-c2cnc(C(=O)Nc3ccc(C(=O)NCc4cn(CCS(C)(=O)=O)[n+](C)c4)c(Cl)c3)n2C)c(F)c1F [Example A24, N-[3-chloro-4-[[1-methyl-2-(2-methylsulfonylethyl)pyrazol-1-ium-4-yl]methylcarbamoyl]phenyl]-5-(2,3-difluoro-4-methoxy-phenyl)-1-methyl-imidazole-2-carboxamide; formate]		350 nM
COc1ccc(-c2cnc(C(=O)Nc3ccc(C(=O)NCCCCC[N+](C)(C)CC(N)=O)c(Cl)c3)n2C)c(F)c1F [Example A3, (2-amino-2-oxo-ethyl)-[5-[[2-chloro-4-[[5-(2,3-difluoro-4-methoxy-phenyl)-1-methyl-imidazole-2-carbonyl]amino]benzoyl]amino]pentyl]-dimethyl-ammonium; formate]	160 nM	
Cc1cc(NC(=O)c2ncc(-c3ccc(OCC#N)c(F)c3F)n2C)ccc1C(=O)N[C@H]1C[C@@H](NCC[N+](C)(C)C)C1 [Example A19, 2-[[3-[[4-[[5-[4-(cyanomethoxy)-2,3-difluoro-phenyl]-1-methyl-imidazole-2-carbonyl]amino]-2-methyl-benzoyl]amino]cyclobutyl]amino]ethyl-trimethyl-ammonium formate]	1200 nM	
CCc1cc(NC(=O)c2ncc(-c3ccc(OC)c(F)c3F)n2C)ccc1C(=O)N1CCN(CCC[N+](C)(C)C)CC1 [Example A6, 3-(4-(4-(5-(2,3-difluoro-4-methoxyphenyl)-1-methyl-1H-imidazole-2-carboxamido)-2-ethylbenzoyl)piperazin-1-yl)-N,N,N-trimethylpropan-1-aminium iodide]	1500 nM	

Further lines, with some results ahead:

IC90 [1]	SMILES	IC90 [2]
200 nM	COc1ccc(-c2cnc(C(=O)Nc3ccc(C(=O)NCc4cnn(CC(=O)N5CC[N+](C)(C)CC5)c4)c(Cl)c3)n2C)c(F)c1F [Example B32, N-[3-chloro-4-[1-[2-(4,4-dimethylpiperazin-4-ium-1-yl)-2-oxo-ethyl]pyrazol-4-yl]methylcarbamoyl]phenyl]-5-(2,3-difluoro-4-methoxy-phenyl)-1-methyl-imidazole-2-carboxamide; formate]	
410 nM	CCc1cc(NC(=O)c2ncc(-c3ccc(OC)c(F)c3F)n2C)ccc1C(=O)N1CCC(C(=O)NCCOCC[N+](C)(C)C)CC1 [Example B23, 2-(2-(1-(4-(5-(2,3-difluoro-4-methoxyphenyl)-1-methyl-1H-imidazole-2-carboxamido)-2-ethylbenzoyl)piperidine-4-carboxamido)ethoxy)-N,N,N-trimethylethan-1-aminium iodide]	
150 nM	Cn1c(-c2ccc(OC(F)F)cc2F)cnc1C(=O)Nc1ccc(C(=O)N2CCN(C(=O)C[N+](C)(C)C)CC2)c(Cl)c1 [Example B11, [2-[4-[2-chloro-4-[5-[4-(difluoromethoxy)-2-fluoro-phenyl]-1-methyl-imidazole-2-carbonyl]amino]benzoyl]piperazin-1-yl]-2-oxo-ethyl]-trimethyl-ammonium; formate]	
73 nM	COc1ccc(-c2cnc(C(=O)Nc3ccc(C(=O)N4CCN(C(=O)C5CC[N+](C)(CC(N)=O)CC5)CC4)c(Cl)c3)n2C)c(F)c1F (centres unmarked) [Example C5, N-[4-[4-[1-(2-amino-2-oxo-ethyl)-1-methyl-piperidin-1-ium-4-carbonyl]-piperazine-1-carbonyl]-3-chloro-phenyl]-5-(2,3-difluoro-4-methoxy-phenyl)-1-meth-yl-imidazole-2-carboxamide; formate]	
69 nM	Cn1c(-c2ccc(OC(F)F)c(F)c2F)cnc1C(=O)Nc1ccc(C(=O)N2CCN(C(=O)C[N+]3(C)CCC(C(N)=O)C3)CC2)c(Cl)c1 (centres unmarked) [Example C26, N-[4-[4-[2-(3-carbamoyl-1-methyl-pyrrolidin-1-ium-1-yl)acet-yl]piperazine-1-carbonyl]-3-chloro-phenyl]-5-[4-(difluorometh-oxy)-2,3-difluoro-phenyl]-1-methyl-imidazole-2-carboxamide; formate]	
230 nM	COc1ccc(-c2cnc(C(=O)Nc3ccc(C(=O)N4CCN(C(=O)C5CN(C(=O)C[N+](C)(C)C)C5)CC4)c(Cl)c3)n2C)c(F)c1F [Example B16, [2-[3-[4-[2-chloro-4-[[5-(2,3-difluoro-4-methoxy-phenyl)-1-methyl-imidazole-2-carbonyl]amino]benzoyl]piperazine-1-carbonyl]azetidin-1yl]-2-oxo-ethyl]-trimethyl-ammonium; formate]	
73 nM	Cn1c(-c2ccc(OC(F)F)c(F)c2F)cnc1C(=O)Nc1ccc(C(=O)N2CCN(C(=O)C3CC[N+](C)(CC4CNC4)CC3)CC2)c(Cl)c1 (centres unmarked) [Example C13, N-[4-[4-[1-(azet-idin-3-ylmeth-yl)-1-methyl-piper-idin-1-ium-4-carbonyl]piper-azine-1-carbon-yl]-3-chloro-phen-yl]-5-[4-(difluoro-methoxy)-2,3-difluoro-phenyl]-1-methyl-imid-azole-2-carbox-amide; 2,2,2-trifluoroacetate; 2,2,2-trifluoro-acetic acid]	
100 nM	COc1ccc(-c2cnc(C(=O)Nc3ccc(C(=O)N4CCN(C(=O)C5CC[N+](C)(CC6CNC6)CC5)CC4)c(Cl)c3)n2C)c(F)c1F (centres unmarked) [Example C16, N-[4-[4-[1-(azet-idin-3-ylmethyl)-1-methyl-piper-idin-1-ium-4-carbonyl]piper-azine-1-carbon-yl]-3-chloro-phenyl]-5-(2,3-difluoro-4-meth-oxy-phenyl)-1-methyl-imid-azole-2-carbox-amide; formic acid; formate]	
170 nM	Cn1c(-c2ccc(OCF)cc2F)cnc1C(=O)Nc1ccc(C(=O)N2CCN(C(=O)C[N+](C)(C)C)CC2)c(Cl)c1 [Example B22, [2-[4-[2-chloro-4-[5-[2-fluoro-4-(fluoromethoxy)phenyl]-1-methyl-imidazole-2-carbonyl]amino]benzoyl]piperazin-1-yl]-2-oxo-ethyl]-trimethyl-ammonium; formate]	
34 nM	Cn1c(-c2ccc(OC(F)F)c(F)c2F)cnc1C(=O)Nc1ccc(C(=O)N2CCN(C(=O)C3CC[N+](C)(CC(N)=O)CC3)CC2)c(Cl)c1 (centres unmarked) [Example C2, N-[4-[4-[1-(2-amino-2-oxo-ethyl)-1-methyl-piperidin-1-ium-4-carbonyl]-piperazine-1-carbonyl]-3-chloro-phenyl]-5-[4-(difluoro-methoxy)-2,3-difluoro-phen-yl]-1-methyl-imidazole-2-carboxamide; formate]	
73 nM	Cn1c(-c2ccc(OC(F)F)c(F)c2Cl)cnc1C(=O)Nc1ccc(C(=O)N2CCN(C(=O)C3CC[N+](C)(CC4CNC4)CC3)CC2)c(Cl)c1 (centres unmarked) [Example C15, N-[4-[4-[1-(azetidin-3-yl-methyl)-1-meth-yl-piperidin-1-ium-4-carbonyl]-piperazine-1-car-bonyl]-3-chloro-phenyl]-5-[2-chloro-4-(difluoro-methoxy)-3-fluoro-phenyl]-1-methyl-imidazole-2-carboxamide; formic acid; formate]	
